From patent US6693108B2, “Inhibitors of c-JUN N terminal kinases (JNK) and other protein kinases” (Vertex Pharmaceuticals Incorporated, priority 1999, dated 2004)

Target: T1, activated JNK3 (Homo sapiens, UniProt P53779)
T1 construct: One such construct encodes amino acid residues Ser40-Glu402 of JNK3α1 and is preceded by Met and Gly residues; Met-Gly (initiation Met plus Gly added to create the NcoI site) (N); made in house; host or cells: E. coli BL21 (DE3)
Experiment: JNK3 inhibition, spectrophotometric coupled-enzyme assay
Type: biochemical
Conditions: read-out: Activity in the JNK3 Inhibition Assay (Ki rating)
Description: A BLAST search of the EST database using the published JNK3α1 cDNA as a query identified an EST clone (#632588) that contained the entire coding sequence for human JNK3α1. Polymerase chain reactions (PCR) using pfu polymerase (Strategene) were used to introduce restriction sites into the cDNA for cloning into the pET-15B expression vector at the NcoI and BamHI sites. The protein was expressed in E. coli. […] This truncation corresponds to Ser 2 of JNK1 and JNK2 proteins, and is preceded by a methionine (initiation) and a glycine residue. The glycine residue was added in order to introduce an NcoI site for cloning into the expression vector. In addition, systematic C-terminal truncations were performed by PCR to identify a construct that give rise to diffraction-quality crystals.
5 mg of JNK3 was diluted to 0.5 mg/ml in 50 mM HEPES buffer, pH 7.5, containing 100 mM NaCl, 5 mM DTT, 20 mM MgCl2 and 1 mM ATP. GST-MKK7(DD) was added at a molar ratio of 1:2.5 GST-MKK7:JNK3. After incubation for 30 minutes at 25° C., the reaction mixture was concentrated 5-fold by ultrafiltration in a Centriprep-30 (Amicon, Beverly, Mass.), diluted to 10 ml and an additional 1 mM ATP added. This procedure was repeated three times to remove ADP and replenish ATP. The final addition of ATP was 5 mM and the mixture incubated overnight at 4° C.
The activated JNK3/GST-MKK7(DD) reaction mixture was exchanged into 50 mM HEPES buffer, pH 7.5, containing 5 mM DTT and 5% glycerol (w/v) by dialysis or ultrafiltration. The reaction mixture was adjusted to 1.1 M potassium phosphate, pH 7.5, and purified by hydrophobic interaction chromatography (at 25° C.) using a Rainin Hydropore column. […] Activated JNK3 (i.e. doubly phosphorylated JNK3) was stored at −70° C. at 0.25-1 mg/ml.
Compounds were assayed for the inhibition of JNK3 by a spectrophotometric coupled-enzyme assay. In this assay, a fixed concentration of activated JNK3 (10 nM) was incubated with various concentrations of a potential inhibitor dissolved in DMSO for 10 minutes at 30° C. in a buffer containing 0.1 M HEPES buffer, pH 7.5, containing 10 mM MgCl2, 2.5 mM phosphoenolpyruvate, 200 μM NADH, 150 μg/mL pyruvate kinase, 50 μg/mL lactate dehydrogenase, and 200 μM EGF receptor peptide. […] The reaction was initiated by the addition of 10 μM ATP and the assay plate is inserted into the spectrophotometer's assay plate compartment that was maintained at 30° C. The decrease of absorbance at 340 nm was monitored as a function of time. The rate data as a function of inhibitor concentration was fitted to competitive inhibition kinetic model to determine the Ki.

T1 sequence (P53779 40-402): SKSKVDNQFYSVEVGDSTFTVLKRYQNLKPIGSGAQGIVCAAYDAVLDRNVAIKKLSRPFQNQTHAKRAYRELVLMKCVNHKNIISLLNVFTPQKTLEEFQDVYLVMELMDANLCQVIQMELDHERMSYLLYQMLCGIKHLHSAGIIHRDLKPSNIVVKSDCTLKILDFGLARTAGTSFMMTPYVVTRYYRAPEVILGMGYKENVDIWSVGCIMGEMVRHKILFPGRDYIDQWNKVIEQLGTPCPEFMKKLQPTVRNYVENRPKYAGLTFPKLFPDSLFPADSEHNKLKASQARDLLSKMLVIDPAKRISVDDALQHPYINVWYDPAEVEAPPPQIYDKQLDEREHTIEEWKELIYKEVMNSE

Ki [nM] | SMILES
< 100 | COc1ccc(Nc2cc(-c3c(-c4ccccc4)noc3C)ccn2)cc1 [IIA-47]
100 to 1000 | Cc1onc(-c2ccccc2)c1-c1ccnc(NC(=O)c2ccc(F)cc2)n1 [IIIA-14]
> 1000 | COc1ccc(C(=O)Nc2nccc(-c3c(-c4ccccc4)noc3C)n2)c(OC)c1 [IIIA-9]
100 to 1000 | COc1cccc(C(=O)Nc2nccc(-c3c(-c4c(F)cccc4F)noc3C)n2)c1 [IIIA-65]
< 100 | Cc1ccccc1-c1noc(C)c1-c1ccnc(Nc2ccc(C#N)c(F)c2)n1 [IIA-105]
100 to 1000 | Cc1onc(-c2ccccc2)c1-c1ccnc(NC(=O)CC(C)C)n1 [XA-4]
< 100 | O=S1(=O)CCC(OCc2onc(-c3ccc(F)cc3)c2-c2ccnc(NC3CCCCC3)n2)C1 (centres unmarked) [XIA-51]
100 to 1000 | Cc1onc(-c2ccccc2)c1-c1ccnc(Nc2ccc3ccccc3c2)n1 [IIAA-4]
< 100 | Cc1onc(-c2ccccc2)c1-c1ccnc(Nc2ccc(-c3ccccc3)cc2)n1 [IIA-44]
< 100 | Cc1onc(-c2ccccc2)c1-c1ccnc(NC(=O)c2cccc([N+](=O)[O-])c2)n1 [IIIA-74]
100 to 1000 | Cc1ccc2cc(Nc3nccc(-c4c(-c5cccc([N+](=O)[O-])c5)noc4C)n3)ccc2n1 [IIAA-22]
< 100 | Cc1onc(-c2ccccc2)c1-c1ccnc(Nc2cccc3ccccc23)n1 [IIAA-13]
< 100 | Cc1onc(-c2ccccc2)c1-c1ccnc(Nc2ccc(C(=O)O)cc2)c1 [IIA-53]
< 100 | CCOCc1onc(-c2ccc(F)cc2)c1-c1ccnc(NC2CCCCC2)n1 [XIA-48]
> 1000 | COc1cccc(C(=O)Nc2nccc(-c3c(-c4ccccc4C(F)(F)F)noc3C)n2)c1 [IIIA-23]
> 1000 | COc1ccc(C(=O)Nc2nccc(-c3c(-c4cccc([N+](=O)[O-])c4)noc3C)n2)cc1 [IIIA-36]

Ki [nM] | SMILES
100 to 1000 | Cc1ccc2cc(Nc3nccc(-c4c(-c5cccc(C#N)c5)noc4C)n3)ccc2n1 [IIAA-23]
100 to 1000 | COc1cccc(C(=O)Nc2nccc(-c3c(-c4cccc(F)c4)noc3C)n2)c1 [IIIA-46]
100 to 1000 | Cc1onc(-c2ccccc2F)c1-c1ccnc(NC(=O)c2cccc(Cl)c2)n1 [IIIA-54]
< 100 | CCOC(=O)N1CCC(Nc2nccc(-c3c(-c4ccccc4)noc3C)n2)CC1 [IIAA-31]
100 to 1000 | Cc1onc(-c2ccccc2)c1-c1ccnc(NC2CCNCC2)n1 [IIAA-32]
100 to 1000 | COc1ccc(C(=O)Nc2nccc(-c3c(-c4c(F)cccc4F)noc3C)n2)cc1 [IIIA-68]
< 100 | COc1ccc2cc(Nc3nccc(-c4c(-c5ccccc5C)noc4C)n3)ccc2c1 [IIAA-19]
100 to 1000 | COc1cc(C(=O)Nc2nccc(-c3c(-c4ccccc4C)noc3C)n2)cc(OC)c1OC [IIIA-18]
100 to 1000 | Cc1onc(-c2ccccc2Br)c1-c1ccnc(Nc2ccccc2)n1 [IIA-79]
< 100 | CC(=O)c1cccc(Nc2nccc(-c3c(-c4ccccc4)noc3C)n2)c1 [IIA-39]
> 1000 | Cc1onc(-c2ccccc2)c1-c1ccnc(NC(=O)c2ccccc2Br)n1 [IIIA-2]
100 to 1000 | Cc1cccc(C(=O)Nc2nccc(-c3c(-c4ccccc4)noc3C)n2)c1 [IIIA-6]
100 to 1000 | Cc1ccc(C(=O)Nc2nccc(-c3c(-c4cccc(F)c4)noc3C)n2)cc1 [IIIA-50]
100 to 1000 | Cc1onc(-c2c(F)cccc2F)c1-c1ccnc(NC(=O)c2ccc(F)cc2)n1 [IIIA-69]
100 to 1000 | COc1cc(OC)cc(C(=O)Nc2nccc(-c3c(-c4c(F)cccc4F)noc3C)n2)c1 [IIIA-66]
100 to 1000 | Cc1onc(-c2ccccc2)c1-c1ccnc(NC(=O)C2CCCC2)n1 [XA-3]
